For one compound, IC50 results are on record in patent US11964953B2, “Substituted aminothiazoles as DGKzeta inhibitors for immune activation” (Bayer Aktiengesellschaft, priority 2020, dated 2024).

One may read the IC50 as the point on the concentration scale where inhibition reaches its midpoint.

This experiment addresses human DGKζ (Homo sapiens (Human), UniProt Q13574). Nature of the experiment: Human DGKζ kinase activity inhibition assay (ADP-Glo). The class given is biochemical. The settings on record: in vitro human DGKζ kinase activity inhibition assay; read-out: IC50. Summed up: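 Enzyme was C-terminally FLAG-tagged full-length recombinant human DGKζ from baculovirus-infected insect cells. Substrate preparation used octyl-β-D-glucopyranoside in 50 mM MOPS pH 7.4 with sonication; ADP generated was quantified by ADP-Glo luminescence as activity measure.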
On the technique in general: In ADP-Glo the light output rises with the ADP produced.

SMILES strings stand for the structures.

human DGKζ, sequence (Q13574 other isoform, or with tags, fused parts or gaps): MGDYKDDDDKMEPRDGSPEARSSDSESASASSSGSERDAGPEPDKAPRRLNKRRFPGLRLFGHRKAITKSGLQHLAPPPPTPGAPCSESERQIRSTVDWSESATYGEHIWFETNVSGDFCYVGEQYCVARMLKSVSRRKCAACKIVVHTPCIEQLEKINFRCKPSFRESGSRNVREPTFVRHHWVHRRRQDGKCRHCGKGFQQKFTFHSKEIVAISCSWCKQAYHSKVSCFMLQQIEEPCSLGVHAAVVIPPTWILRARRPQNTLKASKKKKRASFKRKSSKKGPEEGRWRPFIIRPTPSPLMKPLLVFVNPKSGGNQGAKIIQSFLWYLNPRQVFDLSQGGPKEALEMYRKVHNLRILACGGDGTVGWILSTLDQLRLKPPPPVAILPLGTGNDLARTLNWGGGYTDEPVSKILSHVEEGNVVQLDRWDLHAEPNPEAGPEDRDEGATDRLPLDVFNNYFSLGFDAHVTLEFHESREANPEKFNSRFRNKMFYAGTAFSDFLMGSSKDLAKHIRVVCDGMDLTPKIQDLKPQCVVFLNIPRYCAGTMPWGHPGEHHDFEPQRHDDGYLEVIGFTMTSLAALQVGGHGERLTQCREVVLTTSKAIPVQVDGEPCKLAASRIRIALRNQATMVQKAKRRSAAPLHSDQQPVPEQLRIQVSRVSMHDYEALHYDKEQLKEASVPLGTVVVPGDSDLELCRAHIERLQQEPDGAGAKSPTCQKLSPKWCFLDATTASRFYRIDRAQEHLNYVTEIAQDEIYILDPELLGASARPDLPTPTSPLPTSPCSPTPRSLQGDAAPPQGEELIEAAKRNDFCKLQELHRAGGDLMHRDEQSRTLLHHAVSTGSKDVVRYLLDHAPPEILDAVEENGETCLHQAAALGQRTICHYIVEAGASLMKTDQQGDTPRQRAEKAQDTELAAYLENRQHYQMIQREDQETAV

With `CC(C(N)=O)N(c1ccc(Cl)c(F)c1)c1nc(N)c(C(=O)c2ccc(OC(F)F)cc2)s1` (racemic) [Example 48, rac-2-(N-[4-amino-5-[4-(difluoromethoxy)benzoyl]thiazol-2-yl]-4-chloro-3-fluoro-anilino)propanamide], the IC50 is 3.72 nM.
